Results taken from patent publication US11952365B2, “Anti-viral compounds” (Aligos Therapeutics, Inc., priority 2020, dated 2024).
Read-outs that look alike come from different tables or passages of the source.

Legend:
[1] = biological target: HRV3C (Human rhinovirus 14, UniProt P03303); assay: HRV3C protease assay (duplex, SAMDI-MS); format: biochemical, HRV; conditions: 30 mins preincubation
In short: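 HRV3C was preincubated 30 min with compound alongside 3CLpro at ambient temperature, then two biotinylated peptide substrates were added for 30 min. Quenching used 0.5% formic acid (final). Cleaved product was captured on neutravidin SAMDI arrays and quantified by MALDI-TOF as product/internal-standard AUC ratio; IC50 from four-parameter fit.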

[2] = system: human beta-coronavirus OC43; assay: microbe, parasite or virus in culture; format: cell-based; conditions: Betacoronavirus 1, OC43, HeLa, 144 h
[3] = Cytotoxicity plates without OC43 virus (cell-titer-glo); format: cell-based, human; conditions: human; HeLa cells without OC43 virus, class symbols
In short: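 Run as a virus-free counterpart of the OC43 cytopathic-effect assay. Attached HeLa cells received compound dilutions in EMEM with 2% FBS and were kept 6 days at 33 °C. Cell viability was then measured by CellTiter-Glo luminescence.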

[4] = system: SARS-CoV-2-GHB-03021/2020; assay: SARS-CoV-2 Infection Model in Huh7 Cells; format: cell-based; conditions: Severe acute respiratory syndrome coronavirus 2, Huh-7, 96 h, SARS-CoV-2, day 4 p.i., MTS
[5] = system: SARS-CoV-2-GHB-03021/2020; assay: microbe, parasite or virus in culture; format: cell-based; conditions: Severe acute respiratory syndrome coronavirus 2, Vero C1008, 96 h; read-out: VeroE6 + CP (EC50)
[6] = biological target: T1, human cathepsin L (Homo sapiens, UniProt P07711); assay: cathepsin L assay; format: biochemical; conditions: 10 pM human cathepsin L, Z-FR-AMC 2 μM, class symbols
T1 construct: purchased R&D Systems
In short: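 Reactions began by adding 2 μM (final) Z-FR-AMC substrate to 10 pM human cathepsin L that had been preincubated 30 min with inhibitor. Kinetic AMC fluorescence at 355/460 nm over 30 min at 2-min intervals; four-parameter fitting gave IC50 values.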

[7] = in vitro; conditions: human
[8] = in vitro; conditions: African green monkey, VeroE6 + CP (CC50), Vero E6-eGFP cells with CP-100356, absence of virus, MTS
[9] = biological target: 3CLpro (Severe acute respiratory syndrome coronavirus 2, UniProt P0DTD1); assay: SARS-CoV-2 3CLpro protease assay (duplex, SAMDI-MS); format: biochemical; set-up: For the duplex assay, 3CLpro and HRV3C was added; conditions: 3CLpro, 30 mins preincubation, class symbols; read-out: SARS-Cov-2 IC50
[10] = HRV3C, class symbols, read-out: HRV IC50
[11] = OC43 in HeLa cells, 6 days at 33° C., class symbols, read-out: EC50
[12] = HRV3C, bound, read-out: HRV IC50
[13] = OC43 in HeLa cells, 6 days at 33° C., bound, read-out: EC50

SMILES | IC50 [1, 10] | EC50 [2, 11] | CC50 at 6 days [3] | EC50 ([4]; class symbols) | EC50 [5] | IC50 [6] | CC50 [7] | CC50 ([8]; numeric bounds) | IC50 [9] | IC50 [1, 12] | IC50 ([1]; HRV IC50, HRV3C, bound) | EC50 [2] | EC50 [2, 13] | EC50 ([4]; numeric bounds) | CC50 ([8]; class symbols)
COc1cc(C(F)(F)F)cc2[nH]c(C(=O)N3C[C@@H]4CCC[C@@H]4[C@H]3C(=O)N[C@@H](C[C@@H]3CCNC3=O)C(=O)CO)cc12 [Compound 163, (1S,3aR,6aS)—N—((S)-4-hydroxy-3-oxo-1-((S)-2-oxopyrrolidin-3-yl)butan-2-yl)-2-(4-methoxy-6-(trifluoromethyl)-1H-indole-2-carbonyl)octahydrocyclopenta[c]pyrrole-1-carboxamide] | 2 to 20 µM | < 0.1 µM | > 10 µM | 1 to 10 µM | 1 to 10 µM | ≥ 10 µM | > 50 µM | > 50 µM | < 0.02 µM |  |  |  |  |  | 
COc1cccc2[nH]c(C(=O)N3C[C@@H]4CCC[C@@H]4[C@H]3C(=O)NC(C[C@@H]3CCNC3=O)C(=O)C(=O)NCc3ccccc3)nc12 (stereo partly drawn) [Compound 36, 3-[[(1S,3aR,6aS)-2-(4-methoxy-1H-1,3-benzodiazole-2-carbonyl)-hexahydro-1H-cyclopenta[c]pyrrol-1-yl]formamido]-N-benzyl-2-oxo-4-[(3S)-2-oxopyrrolidin-3-yl]butanamide] | 20 to 100 µM | 10 to 100 µM | > 10 µM | 10 to 100 µM | 10 to 100 µM | ≥ 10 µM | > 100 µM | > 100 µM | 0.02 to 0.2 µM |  |  |  |  |  | 
O=C1NCC[C@H]1C[C@H](NC(=O)[C@@H]1[C@H]2CCC[C@H]2CN1C(=O)c1cc2c(Cl)c(F)cc(Cl)c2[nH]1)C(=O)CO [Compound 122, (1S,3aR,6aS)-2-(4,7-dichloro-5-fluoro-1H-indole-2-carbonyl)-N-[(2S)-4-hydroxy-3-oxo-1-[(3S)-2-oxopyrrolidin-3-yl]butan-2-yl]-hexahydro-1H-cyclopenta[c]pyrrole-1-carboxamide] |  | < 0.1 µM | > 10 µM | < 1 µM | < 1 µM | ≥ 10 µM | > 50 µM | > 50 µM | 0.02 to 0.2 µM | > 10 µM |  |  |  |  | 
O=C1NCC[C@H]1C[C@H](NC(=O)[C@@H]1[C@H]2CCC[C@H]2CN1C(=O)c1cc2c(Cl)cccc2[nH]1)C(=O)COCc1ccccc1 [Compound 60A, (1S,3aR,6aS)—N-[(2S)-4-(benzyloxy)-3-oxo-1-[(3S)-2-oxopyrrolidin-3-yl]butan-2-yl]-2-(4-chloro-1H-indole-2-carbonyl)-hexahydro-1H-cyclopenta[c]pyrrole-1-carboxamide] |  | < 0.1 µM | > 10 µM | 1 to 10 µM | 1 to 10 µM | ≥ 10 µM | 1 to 10 µM | > 100 µM | 0.2 to 2 µM | > 10 µM |  |  |  |  | 
O=C1NCC[C@H]1C[C@H](NC(=O)[C@@H]1[C@H]2CCC[C@H]2CN1C(=O)c1cc2c(Cl)c(F)cc(F)c2[nH]1)C(=O)CO [Compound 143, (1S,3aR,6aS)-2-(4-chloro-5,7-difluoro-1H-indole-2-carbonyl)-N-[(2S)-4-hydroxy-3-oxo-1-[(3S)-2-oxopyrrolidin-3-yl]butan-2-yl]-hexahydro-1H-cyclopenta[c]pyrrole-1-carboxamide] |  |  | > 10 µM | < 1 µM | < 1 µM | ≥ 10 µM | > 10 µM | > 50 µM | 0.02 to 0.2 µM |  | > 10 µM | 0.1 to 1 µM |  |  | 
O=C(NC1CC1)C(=O)[C@H](C[C@@H]1CCNC1=O)NC(=O)[C@@H]1CC2(CCN1C(=O)c1cc3c(Cl)cccc3[nH]1)CC2 [Compound 145] | 0.02 to 0.2 µM | 1 to 10 µM | > 10 µM | 10 to 100 µM | 10 to 100 µM | 0.1 to 1 µM | > 50 µM | > 50 µM | < 0.02 µM |  |  |  |  |  | 
C=CC12CN(C(=O)c3cc4c(OC)cccc4[nH]3)C(C(=O)N[C@@H](C[C@@H]3CCNC3=O)C(=O)C(=O)NC3CC3)(C1)C2 [Compound 98] | 0.02 to 0.2 µM |  | > 10 µM |  | 10 to 100 µM | ≥ 10 µM | > 50 µM |  | 0.2 to 2 µM |  |  |  | > 10 µM | > 50 µM | > 10 µM
O=C1NCC[C@H]1C[C@H](NC(=O)[C@@H]1[C@H]2CCC[C@H]2CN1C(=O)c1cc2c(Cl)c(F)c(Cl)cc2[nH]1)C(=O)CO [Compound 121, (1S,3aR,6aS)-2-(4,6-dichloro-5-fluoro-1H-indole-2-carbonyl)-N—((S)-4-hydroxy-3-oxo-1-((S)-2-oxopyrrolidin-3-yl)butan-2-yl)octahydrocyclopenta[c]pyrrole-1-carboxamide] |  | < 0.1 µM | > 10 µM | < 1 µM | 1 to 10 µM | ≥ 10 µM | > 50 µM | > 50 µM | 0.02 to 0.2 µM | > 10 µM |  |  |  |  | 
O=C(NC1CC1)C(=O)[C@H](C[C@@H]1CCNC1=O)NC(=O)[C@@H]1CC2(CCN1C(=O)c1cc3c(Cl)cc(Cl)cc3[nH]1)CC2 [Compound 141] | 2 to 20 µM | 0.1 to 1 µM | > 10 µM |  | > 50 µM | 0.1 to 1 µM | > 10 µM | > 50 µM | 0.02 to 0.2 µM |  |  |  |  | > 50 µM | 
O=C1NCC[C@H]1C[C@H](NC(=O)[C@@H]1[C@H]2CCC[C@H]2CN1C(=O)c1cc2c(Cl)cc(Cl)cc2[nH]1)C(=O)CO [Compound 91, (1S,3aR,6aS)-2-(4,6-dichloro-1H-indole-2-carbonyl)-N-[(2S)-4-hydroxy-3-oxo-1-[(3S)-2-oxopyrrolidin-3-yl]butan-2-yl]-hexahydro-1H-cyclopenta[c]pyrrole-1-carboxamide] | 2 to 20 µM | < 0.1 µM | > 10 µM | < 1 µM | < 1 µM | ≥ 10 µM | > 10 µM |  | < 0.02 µM |  |  |  |  |  | > 10 µM
O=C(NCCOC1CCCC1)C(=O)[C@H](C[C@@H]1CCNC1=O)NC(=O)[C@@H]1[C@H]2CCC[C@H]2CN1C(=O)c1cc2c(Cl)cc(Cl)cc2[nH]1 [Compound 166] |  | 0.1 to 1 µM | > 10 µM | < 1 µM | < 1 µM | 1 to 10 µM | 1 to 10 µM |  | < 0.02 µM | > 10 µM |  |  |  |  | > 10 µM
COc1cccc2[nH]c(C(=O)N3C[C@@H]4CCC[C@@H]4[C@H]3C(=O)N[C@@H](C[C@@H]3CCNC3=O)C(=O)C(=O)N[C@H]3CCOC3)cc12 [Compound 103] | 0.2 to 2 µM |  | > 10 µM | 10 to 100 µM | 10 to 100 µM | ≥ 10 µM | > 100 µM | > 100 µM | 0.02 to 0.2 µM |  |  |  | > 10 µM |  | 
CC(C)OCCNC(=O)C(=O)[C@H](C[C@@H]1CCNC1=O)NC(=O)[C@@H]1[C@H]2CCC[C@H]2CN1C(=O)c1cc2c(Cl)cc(Cl)cc2[nH]1 [Compound 173] |  | 0.1 to 1 µM | > 10 µM | 1 to 10 µM | < 1 µM | ≥ 10 µM | 1 to 10 µM | > 50 µM | 0.02 to 0.2 µM | > 10 µM |  |  |  |  | 
COc1cccc2[nH]c(C(=O)N3CC4(CC4)C[C@H]3C(=O)N[C@@H](C[C@@H]3CCCNC3=O)C(=O)CO)cc12 [Compound 42, (S)—N—((S)-4-hydroxy-3-oxo-1-((S)-2-oxopiperidin-3-yl)butan-2-yl)-5-(4-methoxy-1H-indole-2-carbonyl)-5-azaspiro[2.4]heptane-6-carboxamide] | 2 to 20 µM | 0.1 to 1 µM | > 10 µM | 1 to 10 µM | 1 to 10 µM | ≥ 10 µM | > 100 µM | > 100 µM | 0.02 to 0.2 µM |  |  |  |  |  | 
